Laboratory results published in PMC11870743, “Endothelial OX40 activation facilitates tumor cell escape from T cell surveillance through S1P/YAP-mediated angiogenesis” (The Journal of Clinical Investigation, 2025).

Target: T1, YAP (Yes 1–associated protein), purified (Homo sapiens, UniProt P46937)
T1 construct: gene YAP1; purified YAP protein
Test: microscale thermophoresis
Assay type: binding
Conditions: read-out: dissociation constant

T1 sequence (P46937 whole entry): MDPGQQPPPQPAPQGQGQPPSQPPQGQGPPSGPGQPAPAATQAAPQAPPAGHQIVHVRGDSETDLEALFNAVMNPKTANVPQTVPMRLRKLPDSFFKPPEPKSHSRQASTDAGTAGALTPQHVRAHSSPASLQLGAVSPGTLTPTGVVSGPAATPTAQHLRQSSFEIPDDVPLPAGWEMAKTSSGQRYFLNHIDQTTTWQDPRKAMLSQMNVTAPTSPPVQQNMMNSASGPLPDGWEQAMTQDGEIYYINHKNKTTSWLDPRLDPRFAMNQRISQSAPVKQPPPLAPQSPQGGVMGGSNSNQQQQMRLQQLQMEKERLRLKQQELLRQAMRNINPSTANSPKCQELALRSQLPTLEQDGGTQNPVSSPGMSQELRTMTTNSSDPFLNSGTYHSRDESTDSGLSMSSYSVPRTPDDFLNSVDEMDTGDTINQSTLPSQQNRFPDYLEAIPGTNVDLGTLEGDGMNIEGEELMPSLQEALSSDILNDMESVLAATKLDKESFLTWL

Kd: 13 µM
Structure (SMILES): CCCCCCCCCCCCC/C=C/[C@@H](O)[C@@H](N)COP(=O)(O)O [sphingosine 1-phosphate]
